The results in this text go back to ChEMBL document CHEMBL5678818, “Discovery of potent SOS1 inhibitors that block RAS activation via disruption of the RAS-SOS1 interaction” (Proc Natl Acad Sci U S A, 2019).

In assay [1] the target is T1, Cyclin-dependent kinase-like 2 (Homo sapiens) (UniProt Q92772).
T1 sequence (whole entry): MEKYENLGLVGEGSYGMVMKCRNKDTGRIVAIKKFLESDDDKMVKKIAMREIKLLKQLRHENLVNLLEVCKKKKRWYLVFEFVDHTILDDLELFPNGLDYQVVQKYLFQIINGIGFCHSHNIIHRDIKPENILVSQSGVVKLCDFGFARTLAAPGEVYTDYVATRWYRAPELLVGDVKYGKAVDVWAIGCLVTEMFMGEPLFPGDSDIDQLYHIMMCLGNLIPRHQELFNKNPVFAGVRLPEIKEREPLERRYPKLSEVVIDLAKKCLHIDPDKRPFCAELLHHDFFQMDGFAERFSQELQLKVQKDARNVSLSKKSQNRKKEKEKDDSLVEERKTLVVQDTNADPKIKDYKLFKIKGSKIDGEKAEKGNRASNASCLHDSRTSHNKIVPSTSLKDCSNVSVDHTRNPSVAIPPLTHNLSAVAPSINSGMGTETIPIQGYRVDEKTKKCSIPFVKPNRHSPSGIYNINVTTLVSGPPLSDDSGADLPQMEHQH
Description: Inhibition of CDKL2 (unknown origin) assessed as residual activity at 100 nM by KINOMEscan analysis relative to control.

Assay [2] concerns the target T2, Tyrosine-protein kinase JAK3 (Homo sapiens) (UniProt P52333).
T2 sequence (whole entry): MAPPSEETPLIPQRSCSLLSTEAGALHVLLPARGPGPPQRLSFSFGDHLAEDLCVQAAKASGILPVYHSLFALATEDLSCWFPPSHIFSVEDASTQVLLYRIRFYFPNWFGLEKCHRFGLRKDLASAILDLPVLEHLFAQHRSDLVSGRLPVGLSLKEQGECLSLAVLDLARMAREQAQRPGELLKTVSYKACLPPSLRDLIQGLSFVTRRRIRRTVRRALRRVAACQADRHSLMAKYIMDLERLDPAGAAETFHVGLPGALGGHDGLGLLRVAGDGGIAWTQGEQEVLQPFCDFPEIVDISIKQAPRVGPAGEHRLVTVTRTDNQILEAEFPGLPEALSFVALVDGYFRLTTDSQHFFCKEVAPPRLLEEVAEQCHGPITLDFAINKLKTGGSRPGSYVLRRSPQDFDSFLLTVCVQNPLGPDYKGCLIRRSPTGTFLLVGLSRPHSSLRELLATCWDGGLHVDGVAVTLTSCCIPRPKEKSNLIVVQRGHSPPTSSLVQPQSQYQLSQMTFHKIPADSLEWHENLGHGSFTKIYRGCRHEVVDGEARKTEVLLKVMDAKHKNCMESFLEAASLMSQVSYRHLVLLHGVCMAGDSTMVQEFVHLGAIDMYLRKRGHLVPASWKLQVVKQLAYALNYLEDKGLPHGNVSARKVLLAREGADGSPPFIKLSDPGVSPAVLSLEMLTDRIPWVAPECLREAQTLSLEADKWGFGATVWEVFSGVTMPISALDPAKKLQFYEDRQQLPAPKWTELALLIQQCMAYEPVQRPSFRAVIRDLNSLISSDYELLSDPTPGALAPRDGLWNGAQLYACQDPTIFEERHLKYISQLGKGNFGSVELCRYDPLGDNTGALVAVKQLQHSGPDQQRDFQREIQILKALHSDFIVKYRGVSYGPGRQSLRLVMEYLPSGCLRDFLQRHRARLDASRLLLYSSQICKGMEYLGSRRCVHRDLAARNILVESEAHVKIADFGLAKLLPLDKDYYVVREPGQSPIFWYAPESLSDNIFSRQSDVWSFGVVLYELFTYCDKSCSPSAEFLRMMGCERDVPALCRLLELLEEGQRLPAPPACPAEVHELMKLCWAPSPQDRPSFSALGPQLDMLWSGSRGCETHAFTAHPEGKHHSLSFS
Description: Inhibition of JAK3 JH1 catalytic domain (unknown origin) assessed as residual activity at 100 nM by KINOMEscan analysis relative to control.

Assay [3] concerns the target T3, Mitogen-activated protein kinase kinase kinase 19 (Homo sapiens) (UniProt Q56UN5).
T3 sequence (whole entry): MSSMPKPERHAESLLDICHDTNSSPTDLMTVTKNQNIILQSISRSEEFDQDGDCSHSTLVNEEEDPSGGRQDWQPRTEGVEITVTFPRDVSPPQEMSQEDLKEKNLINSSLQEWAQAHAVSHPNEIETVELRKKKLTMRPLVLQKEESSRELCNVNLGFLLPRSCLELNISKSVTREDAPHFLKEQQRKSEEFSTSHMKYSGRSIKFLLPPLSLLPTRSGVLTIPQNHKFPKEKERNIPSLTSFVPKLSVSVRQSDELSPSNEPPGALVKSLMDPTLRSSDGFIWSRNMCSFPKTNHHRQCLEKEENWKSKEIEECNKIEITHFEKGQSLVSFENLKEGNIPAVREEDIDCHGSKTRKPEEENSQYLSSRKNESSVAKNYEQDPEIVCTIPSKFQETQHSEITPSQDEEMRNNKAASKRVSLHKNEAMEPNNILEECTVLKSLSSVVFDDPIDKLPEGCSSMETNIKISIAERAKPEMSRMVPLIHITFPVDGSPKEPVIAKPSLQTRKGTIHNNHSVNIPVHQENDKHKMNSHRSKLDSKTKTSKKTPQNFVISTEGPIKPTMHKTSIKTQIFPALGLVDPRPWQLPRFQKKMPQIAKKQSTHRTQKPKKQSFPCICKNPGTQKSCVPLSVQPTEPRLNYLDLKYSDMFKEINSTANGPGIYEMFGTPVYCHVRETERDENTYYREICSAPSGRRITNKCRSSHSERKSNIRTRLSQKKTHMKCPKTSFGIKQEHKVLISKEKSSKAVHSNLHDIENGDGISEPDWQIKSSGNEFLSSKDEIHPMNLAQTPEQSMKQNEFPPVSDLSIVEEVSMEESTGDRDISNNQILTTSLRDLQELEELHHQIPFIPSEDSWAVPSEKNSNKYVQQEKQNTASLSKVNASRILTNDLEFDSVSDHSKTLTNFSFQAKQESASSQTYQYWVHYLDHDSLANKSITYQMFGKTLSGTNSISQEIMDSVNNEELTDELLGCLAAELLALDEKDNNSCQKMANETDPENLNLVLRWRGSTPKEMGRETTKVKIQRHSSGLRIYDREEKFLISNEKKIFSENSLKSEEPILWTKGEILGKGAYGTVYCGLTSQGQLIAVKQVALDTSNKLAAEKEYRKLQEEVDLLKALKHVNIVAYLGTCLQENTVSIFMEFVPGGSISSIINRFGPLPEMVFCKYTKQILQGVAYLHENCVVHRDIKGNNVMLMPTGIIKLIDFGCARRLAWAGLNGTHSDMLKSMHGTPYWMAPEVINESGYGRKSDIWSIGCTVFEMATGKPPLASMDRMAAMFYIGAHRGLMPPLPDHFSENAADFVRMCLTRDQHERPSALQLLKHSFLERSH
As to the kind of experiment: Inhibition of YSK4 (unknown origin) assessed as residual activity at 100 nM by KINOMEscan analysis relative to control.

The target of assay [4] is Mitogen-activated protein kinase kinase kinase kinase 5 (Homo sapiens) (UniProt Q9Y4K4). As to the kind of experiment: Inhibition of MAP4K5 (unknown origin) assessed as residual activity at 100 nM by KINOMEscan analysis relative to control.
Sequence of Mitogen-activated protein kinase kinase kinase kinase 5 (Homo sapiens) (Q9Y4K4 whole entry, looked up): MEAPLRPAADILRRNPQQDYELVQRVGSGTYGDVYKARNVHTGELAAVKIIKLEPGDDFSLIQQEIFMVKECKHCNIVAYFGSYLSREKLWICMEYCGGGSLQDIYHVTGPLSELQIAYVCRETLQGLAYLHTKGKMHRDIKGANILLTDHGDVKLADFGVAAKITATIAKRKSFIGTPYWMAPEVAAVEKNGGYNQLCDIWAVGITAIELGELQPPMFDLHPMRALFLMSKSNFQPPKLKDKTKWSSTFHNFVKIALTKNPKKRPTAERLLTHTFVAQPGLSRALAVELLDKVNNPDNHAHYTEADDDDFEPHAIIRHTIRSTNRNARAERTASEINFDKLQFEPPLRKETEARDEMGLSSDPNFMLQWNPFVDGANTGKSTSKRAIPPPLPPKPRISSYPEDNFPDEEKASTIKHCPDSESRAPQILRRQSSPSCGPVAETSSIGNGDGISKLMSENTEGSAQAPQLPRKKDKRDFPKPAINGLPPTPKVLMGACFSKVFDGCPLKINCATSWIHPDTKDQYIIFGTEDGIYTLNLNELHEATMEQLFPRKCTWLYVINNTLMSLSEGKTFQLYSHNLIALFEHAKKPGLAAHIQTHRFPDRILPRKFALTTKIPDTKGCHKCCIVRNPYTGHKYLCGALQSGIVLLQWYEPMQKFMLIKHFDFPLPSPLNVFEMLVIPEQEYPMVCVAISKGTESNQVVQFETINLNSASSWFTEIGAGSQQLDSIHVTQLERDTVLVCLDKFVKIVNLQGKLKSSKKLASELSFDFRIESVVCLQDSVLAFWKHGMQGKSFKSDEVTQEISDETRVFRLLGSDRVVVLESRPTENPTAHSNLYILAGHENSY

Turning to `COc1cc2ncnc(N[C@H](C)c3cccc4ccccc34)c2cc1OC`, the Activity in assay [1] is 88%; in assay [2], 84%; in assay [3], 92%; in assay [4] it was 87%.
